Measurements as given in PMC6598400 (Frontiers in Immunology, 2019).
Like-named read-outs stand apart in the source and are kept apart here.

Experiments:
[1] = test system: PR8 strain of influenza virus; experiment: In vitro antiviral assays in U937, A549 cells and murine PCLS; type: cell-based
phospho-p38 = type: cell-based, human
IFN-α = IFN-α levels in influenza virus-infected U937 cells; type: cell-based, human
[2] = test system: MCP-1 production in U937 cells infected with influenza A virus A/PuertoRico/8/1934; experiment: MCP-1 production in influenza-infected U937 cells (AlphaLISA); type: cell-based, human; settings: read-out: EC50 MCP-1
[3] = cited from earlier work
[4] = test system: influenza A virus (A/PR/8/34); experiment: Mouse lethal influenza model: survival and body weight; type: in vivo, BALB/c mice; settings: for Body weight loss: started 2 h after infection; for Survival rate: started 2 h after infection with 500 TCID50, monitored to day 20
[5] = test system: influenza A virus (A/PR/8/34); experiment: Viral titers in BALF of infected mice (TCID50 assay using MDCK cells); type: in vivo, BALB/c mice
[6] = test system: influenza A virus (A/PR/8/34); experiment: Inflammatory cell infiltration in lungs/BALF of infected mice (histology, flow cytometry); type: in vivo, BALB/c mice; settings: 15 mg/kg oral from day 3
Procedure: BALF samples were washed with FACS buffer (10% BSA in PBS). Red blood cells were lysed using ammonium chloride and […] were seeded into a 96-well U-bottom plate. Cells were pre-incubated with anti-FcgRIII/II (Fc block) in FACS buffer before a 30-min incubation with the following fluorochrome-labeled antibodies (Biolegend): PE-Cy7-conjugated Ly6C (clone HK1.4, dilution 1:200), PE-conjugated CD11b (clone M1/70, dilution 1:200), APC-conjugated Ly6G (clone 1A8, dilution 1:200), and FITC-conjugated CD11c (clone N418, dilution 1:100). Cells were washed with phosphate-buffered saline twice and counterstained with 7AAD (Biolegend) to differentiate apoptotic and dead cells and then analyzed using a LSR Fortessa (Becton Dickinson).
Whole lungs were perfused with 10% neutral buffered formaldehyde in situ. Tissues were then fixed overnight in 10% neutral buffered formaldehyde, embedded in paraffin, and sectioned. Lung specimens were stained with hematoxylin and eosin and then subjected to gross and microscopic pathologic analysis.
Mice were infected as described in Figure 2. […] (A) Hematoxylin & eosin-stained mouse lung sections (scale bar 200 μm) harvested at day 7 post-infection. (B) BALFs were collected from placebo and ponatinib-treated mice (n = 3 per group at each time point) starting day 3 post-infection to monitor total cell counts (mean ± SEM) on days 5 and 7 post-infection. The data are representative of at least three independent experiments.*p < 0.05; **p < 0.01.

[7] = test system: pro-inflammatory cytokines in BALF; set-up: species or system BALB/c mice; settings: mouse, in vivo
[8] = test system: IL-8 production in U937 cells infected with influenza A virus A/PuertoRico/8/1934; experiment: IL-8 production in influenza-infected U937 cells (AlphaLISA); type: cell-based, human; settings: read-out: EC50 IL-8
[9] = test system: MCP-1, KC, IP-10 and IL-6 production in PCLS infected with influenza; experiment: Cytokine production in influenza-infected murine precision-cut lung slices (PCLS); type: cell-based, mouse
[10] = test system: IP-10 production in U937 cells infected with influenza A virus A/PuertoRico/8/1934; experiment: cells; type: cell-based
in vitro = settings: human
[11] = Homo sapiens, U-937, PR8 MOI = 0.1, 48 h
[12] = U937 cells, PR8 MOI = 0.1, 48 h

Cc1ccc(C(=O)Nc2ccc(CN3CCN(C)CC3)c(C(F)(F)F)c2)cc1C#Cc1cnc2cccnn12 [Ponatinib]
Replication of PR8 influenza virus in vitro [1]: did not inhibit the replication | Phosphorylation of p38 (phospho-p38): downregulated | Levels of IFN-α (IFN-α): downregulate | EC50 ([2]; Homo sapiens, U-937, 48 h): 0.4 µM | Median time to first onset of pancreatitis ([3]; clinical trials): 14 days | Median time to initial onset of arterial occlusive events ([3]; patients, long-term treatment): 13.4 months | Body weight loss ([4]; 5 mg/kg/d oral): improvement in body weight loss decreased significantly compared to the middle dose group | Survival rate ([4]; 5 mg/kg/d oral): 20% | Body weight loss, delayed administration ([4]; 15 mg/kg oral, started on days 1, 2, 3 or 4 post-infection until day 6): slowed down significantly | Survival rate, delayed administration ([4]; 15 mg/kg oral, started on days 3 and 4 post-infection until day 6): higher survival rates than those treated starting on days 1 and 2 | Survival rate ([4]; 15 mg/kg/d oral): 50% | Body weight loss ([4]; 15 mg/kg/d oral, days 3 to 5): least decline in body weight | Body weight loss ([4]; 25 mg/kg/d oral): improvement of body weight loss was not observed at all | Survival rate ([4]; 25 mg/kg/d oral): 30% | Viral titers in BALF vs placebo ([5]; 15 mg/kg oral from day 0 (simultaneously with infection)): significantly higher at day 3 and slightly higher at day 7 | Virus titers in BALF vs placebo ([5]; 15 mg/kg oral from day 3, days 5 and 7 post-infection): no difference | Inflammatory infiltrates in the lungs (histology) ([6]; day 7 post-infection, vs placebo): fewer inflammatory infiltrates | Infiltration of neutrophils in BALF ([6]; days 5 and 7 post-infection): greatly reduced | Monocyte infiltration in BALF ([6]; days 5 and 7 post-infection): not affected | Concentrations of IL-6, IL-10, MCP-1, Eotaxin, IL-12 (p40) and MIP-1β in BALF [7]: not affected | Expression levels of cytokines and chemokines in BALF (of 17 increased by infection) [7]: 14 cytokines and chemokines were attenuated | IFN-α levels in BALF vs placebo [7]: higher on day 3 and lower on day 5 post-infection | Inhibition of cytokines in BALF except IL-6 and CCL-5, late phase [7]: minor | Inhibition of cytokines in BALF, early phase [7]: no cytokines were inhibited | Levels of Eotaxin, G-CSF, MCP-1, IL-10, TNF-α and IP-10 in BALF [7]: elevated | Levels of type I IFNs in BALF and serum [7]: reduce the levels of type I IFNs | Production of cytokines and chemokines in BALF [7]: 8 cytokines and chemokines was reduced | EC50 ([8]; Homo sapiens, U-937, 48 h): 0.3 µM | MCP-1, KC, IP-10 and IL-6 productions in infected PCLS [9]: dose-dependently

CNC(=O)c1cc(Oc2ccc(NC(=O)Nc3ccc(Cl)c(C(F)(F)F)c3)cc2)ccn1 [Sorafenib]
EC50 [10, 11]: 3.7 µM | EC50 ([2]; Homo sapiens, U-937, 48 h): 5.8 µM | EC50 ([8]; Homo sapiens, U-937, 48 h): 0.7 µM | CC50 (in vitro): 20.7 µM

Nc1cccc(-c2cc3c(Oc4cccc(O)c4)ncnc3[nH]2)c1 [TWS119]
EC50 ([10]; PR8 MOI = 0.1, 48 h): 8.5 µM | EC50 [2, 12]: 8 µM | EC50 [8, 12]: 9 µM | CC50 (U937 cells): 5.4 µM

Cc1cn(-c2cc(NC(=O)c3ccc(C)c(Nc4nccc(-c5cccnc5)n4)c3)cc(C(F)(F)F)c2)cn1 [Nilotinib]
EC50 [10, 11]: 1.1 µM | EC50 ([2]; Homo sapiens, U-937, 48 h): 1.5 µM | EC50 ([8]; Homo sapiens, U-937, 48 h): 0.4 µM | CC50 (in vitro): 5.4 µM

CC(C)(C)n1nc(-c2ccc(Cl)cc2)c2c(N)ncnc21 [PP2]
EC50 ([10]; PR8 MOI = 0.1, 48 h): 3.3 µM | EC50 [2, 12]: 10.4 µM | EC50 [8, 12]: > 100 µM | CC50 (U937 cells): 40.3 µM

Cc1ccc2nc(NCCN)c3ncc(C)n3c2c1 [BMS-345541]
EC50 [10, 11]: 4.6 µM | EC50 ([2]; Homo sapiens, U-937, 48 h): 3.6 µM | EC50 ([8]; Homo sapiens, U-937, 48 h): 11.7 µM | CC50 (in vitro): 3.9 µM
